Reference: US20240207427A1, “SELECTIVE DRUG RELEASE FROM INTERNALIZED CONJUGATES OF BIOLOGICALLY ACTIVE COMPOUNDS” (priority 2021, published 2024)

What was measured:
Assay type in all cases: cell-based
[1] = tested on: renal carcinoma cells (786-O); test: In vitro potency (CellTiter-Glo, 96 h), 786-O; conditions: Homo sapiens, 786-0, 96 h, CPT free drugs, Table 24; CellTiter-Glo after 96 h exposure; read-out: IC50 (nmol/L) 786-O
In short: (§1)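 Four-day continuous exposure at 37 °C to serially diluted ADC or free camptothecin payload, in RPMI 1640 with 20% FBS after 24 h pre-plating. Luminescent signal gave IC50 (ng/mL; nmol/L).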

[2] = tested on: melanoma cells (A2058); test: In vitro potency (CellTiter-Glo, 96 h), A2058; conditions: Homo sapiens, A2058, 96 h, CPT free drugs, Table 24; CellTiter-Glo after 96 h exposure; read-out: IC50 (nmol/L) A2058
In short: (§2)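 Growth inhibition after 96 h at 37 °C with test article, measured by luminescence; cells in RPMI 1640, 20% FBS.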

[3] = tested on: pancreatic cancer cells (BxPC3); test: In vitro potency (CellTiter-Glo, 96 h), BxPC3; conditions: Homo sapiens, BXPC-3, 96 h, CPT free drugs, Table 24; CellTiter-Glo after 96 h exposure; read-out: IC50 (nmol/L) BxPC3
In short: as §1

[4] = tested on: non-small-cell lung cancer cells (Calu1); test: In vitro potency (CellTiter-Glo, 96 h), Calu1; conditions: Homo sapiens, Calu-1, 96 h, CPT free drugs, Table 24; CellTiter-Glo after 96 h exposure; read-out: IC50 (nmol/L) Calu1
Method: (§3) In vitro potency was assessed on multiple cancer cell lines. All cell lines were authenticated by STR profiling at IDEXX Bioresearch and cultured for no more than 2 months after resuscitation. Cells cultured in log-phase growth were seeded for 24 hours in 96-well plates containing […] RPMI 1640 supplemented with 20% FBS. Serial dilutions of antibody-drug conjugates in cell culture media were prepared at 4× working concentrations, and 50 μL of each dilution was added to the 96-well plates. Following addition of test articles, cells were incubated with test articles for 4 days at 37 0° C. After 96 hours, growth inhibition was assessed by CellTiterGlo® (Promega, Madison, WI) and luminescence was measured on a plate reader.
In Table 7, IC50 values for ADCs are given in ng/mL. Cell viability was determined by CellTiter-Glo staining after 96 h exposure to ADC. ND=Not Determined. Ag2 is an antibody targeting a ubiquitous and readily internalizable antigen. The cancer cell lines tested are renal carcinoma cells (786-0), melanoma cells (A2058), pancreatic cancer cells (BxPC3), non-small-cell lung cancer cells (Calu1), anaplastic large cell lymphoma cells (DEL, DELBVR, Karpas299), Hodgkin's lymphoma cells (L540cy), (Ls174T), breast cancer cells (MDA-MB-231), acute myeloid leukemia cells (MOLM-13), and B-lymphocyte cancer cells (SU-DHL4).
as §3, with “FBS.” for “FBS. Serial dilutions of antibody-drug conjugates in cell culture media were prepared at 4× working concentrations, and 50 μL of each dilution was added to the 96-well plates.”
Cell viability was determined by CellTiter-Glo staining after 96 h exposure to the compound. ND=Not Determined. The cancer cell lines tested are renal carcinoma cells (786-0), melanoma cells (A2058), pancreatic cancer cells (BxPC3), non-small-cell lung cancer cells (Calu1), anaplastic large cell lymphoma cells (DEL, DELBVR, Karpas299), Hodgkin's lymphoma cells (L540cy), (Ls 174T), breast cancer cells (MDA-MB-231), acute myeloid leukemia cells (MOLM-13), B-lymphocyte cancer cells (SU-DHL4), multiple myeloma cells (MM.1R), (U266), and melanoma cells (SK-MEL-5).
as §3, with “37°” for “37 0°”
In the following Tables IC50 values for ADCs and CPT free drugs are given in ng/mL and nmol/L concentrations. Cell viability was determined by CellTiter-Glo staining after 96 h exposure to ADC or CPT free drug.
Cell viability was determined by CellTiter-Glo staining after 96 h exposure to ADC. ND=Not Determined.

[5] = tested on: anaplastic large cell lymphoma cells (DEL); test: In vitro potency (CellTiter-Glo, 96 h), DEL; conditions: CPT free drugs, Table 24, CellTiter-Glo after 96 h exposure, read-out: IC50 (nmol/L) DEL
In short: as §2

[6] = tested on: anaplastic large cell lymphoma cells (DELBVR); test: In vitro potency (CellTiter-Glo, 96 h), DELBVR; conditions: CPT free drugs, Table 24, CellTiter-Glo after 96 h exposure, read-out: IC50 (nmol/L) DELBVR
In short: as §1

[7] = tested on: anaplastic large cell lymphoma cells (Karpas299); test: In vitro potency (CellTiter-Glo, 96 h), Karpas299; conditions: Homo sapiens, KARPAS-299, 96 h, CPT free drugs, Table 24; CellTiter-Glo after 96 h exposure; read-out: IC50 (nmol/L) Karpas299
In short: as §1

[8] = tested on: Hodgkin's lymphoma cells (L540cy); test: In vitro potency (CellTiter-Glo, 96 h), L540cy; conditions: CPT free drugs, Table 24, CellTiter-Glo after 96 h exposure, read-out: IC50 (nmol/L) L540cy
In short: as §1

[9] = tested on: Ls174T cells; test: In vitro potency (CellTiter-Glo, 96 h), Ls174T; conditions: Homo sapiens, LS174T; CPT free drugs, Table 24; CellTiter-Glo after 96 h exposure; read-out: IC50 (nmol/L) Ls174T
In short: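 Antibody-drug conjugates, prepared as dilution series in culture medium, were added to cells seeded a day earlier in RPMI 1640 supplemented with 20% FBS. After four days at 37 °C, luminescence measured growth inhibition.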

[10] = tested on: breast cancer cells (MDA-MB-231); test: In vitro potency (CellTiter-Glo, 96 h), MDA-MB-231; conditions: Homo sapiens, MDA-MB-231, 96 h, CPT free drugs, Table 24; CellTiter-Glo after 96 h exposure; read-out: IC50 (nmol/L) MDAMB231
In short: as §1

[11] = tested on: acute myeloid leukemia cells (MOLM-13); test: In vitro potency (CellTiter-Glo, 96 h), MOLM-13; conditions: Homo sapiens, MOLM-13, 96 h, CPT free drugs, Table 24; CellTiter-Glo after 96 h exposure; read-out: IC50 (nmol/L) MOLM-13
In short: as §1

[12] = tested on: B-lymphocyte cancer cells (SU-DHL4); test: In vitro potency (CellTiter-Glo, 96 h), SU-DHL-4; conditions: Homo sapiens, SU-DHL-4, 96 h, CPT free drugs, Table 24; CellTiter-Glo after 96 h exposure; read-out: IC50 (nmol/L) SU-DHL-4
In short: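 Log-phase cells were seeded for 24 h in RPMI 1640 with 20% FBS, then exposed to serially diluted antibody-drug conjugates or free camptothecin drug for 4 days at 37 °C. Growth inhibition was read by luminescence, and IC50 values were reported in ng/mL and nmol/L.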

Structure (SMILES) | IC50 [1] | IC50 [2] | IC50 [3] | IC50 [4] | IC50 [5] | IC50 [6] | IC50 [7] | IC50 [8] | IC50 [9] | IC50 [10] | IC50 [11] | IC50 [12]
CC[C@@]1(O)C(=O)OCc2c1cc1n(c2=O)Cc2c-1nc1cc(OC)c(OC)cc1c2CN [Compound 2ao, (19S)-10-(aminomethyl)-19-ethyl-19-hydroxy-6,7-dimethoxy-17-oxa-3,13-diazapentacyclo[11.8.0.02,11.04,9.015,20]henicosa-1(21),2,4(9),5,7,10,15 (20)-heptaene-14,18-dione] | > 1000 nmol/L | > 1000 nmol/L | > 1000 nmol/L | > 1000 nmol/L | 937 nmol/L | > 1000 nmol/L | > 1000 nmol/L | > 1000 nmol/L | > 1000 nmol/L | > 1000 nmol/L | > 1000 nmol/L | > 1000 nmol/L
CC[C@@]1(O)C(=O)OCc2c1cc1n(c2=O)Cc2c-1nc1ccc(F)cc1c2CN [Compound 2b] | 27 nmol/L | 8 nmol/L | 58 nmol/L | 76 nmol/L | 4 nmol/L | 5.7 nmol/L | 18 nmol/L | 6 nmol/L | 14 nmol/L | 17 nmol/L | 19 nmol/L | 13 nmol/L
CC[C@@]1(O)C(=O)OCc2c1cc1n(c2=O)Cc2c-1nc1ccc(Cl)cc1c2CN [Compound 2c] | 6 nmol/L | 3 nmol/L | 19 nmol/L | 45 nmol/L | 1.7 nmol/L | 3.3 nmol/L | 8 nmol/L | 5 nmol/L | 3.9 nmol/L | 6 nmol/L | 21 nmol/L | 3 nmol/L
CC[C@@]1(O)C(=O)OCc2c1cc1n(c2=O)Cc2c-1nc1ccc(OC)cc1c2CN [Compound 2d] | 5 nmol/L | 2 nmol/L | 12 nmol/L | 43 nmol/L | 1 nmol/L | 1 nmol/L | 7 nmol/L | 2 nmol/L | 3.7 nmol/L | 4 nmol/L | 25 nmol/L | 4 nmol/L
CC[C@@]1(O)C(=O)OCc2c1cc1n(c2=O)Cc2c-1nc1ccc(Br)cc1c2CN [Compound 2e] | 4.2 nmol/L | 5 nmol/L | 30.7 nmol/L | 55 nmol/L | 1 nmol/L | 4 nmol/L | 10.7 nmol/L | 4.3 nmol/L | 4.5 nmol/L | 7.1 nmol/L | 56 nmol/L | 5.7 nmol/L
